Data from ChEMBL document CHEMBL1201862, “PubChem BioAssay data set” (2004).
Several values for one entry are separate records, joined by “and”; a condition that tells them apart may be missing. Equal entries are not always repeated.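 Growth conditions: 96-well plates. Treatment: test compound, 48 hours, 5 concentrations. Analysis: linear interpolation between bracketing concentrations; unreached endpoints set to highest concentration. The concentration for 50% growth inhibition is given as GI50.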 Activity calls are given as the source filed them. Rule as the data show it: active = GI50 up to about 1.1 µM and inactive = higher.

Assays:
Assay in all cases: NCI-60 cell line screen, 48 h
[1] = test system: 786-0
[2] = test system: A498
[3] = test system: A549
[4] = test system: ACHN
[5] = test system: BT-549
[6] = test system: CAKI-1
[7] = test system: CCRF-CEM
[8] = test system: EKVX
[9] = test system: HCC 2998
[10] = test system: HCT-116
[11] = test system: HCT-15
[12] = test system: HL-60
[13] = test system: HOP-62
[14] = test system: HOP-92
[15] = test system: HT-29
[16] = test system: Hs-578T
[17] = test system: K562
[18] = test system: KM12
[19] = test system: LOX IMVI
[20] = test system: M14
[21] = test system: MCF7
[22] = test system: MDA-MB-231
[23] = test system: MDA-MB-435
[24] = test system: MDA-N
[25] = test system: MOLT-4
[26] = test system: Malme-3M
[27] = test system: NCI-H226
[28] = test system: NCI-H23
[29] = test system: NCI-H460
[30] = test system: NCI-H522
[31] = test system: NCI/ADR-RES
[32] = test system: OVCAR-3
[33] = test system: OVCAR-5
[34] = test system: OVCAR-8
[35] = test system: PC-3
[36] = test system: RPMI-8226
[37] = test system: RXF 393
[38] = test system: SF-268
[39] = test system: SF-295
[40] = test system: SF-539
[41] = test system: SK-MEL-28
[42] = test system: SK-MEL-2
[43] = test system: SK-OV-3
[44] = test system: SNB-19
[45] = test system: SNB-75
[46] = test system: SR
[47] = test system: SW-620
[48] = test system: TK-10
[49] = test system: U-251
[50] = test system: UACC-257
[51] = test system: UACC-62
[52] = test system: UO-31
[53] = test system: IGROV-1
[54] = test system: SK-MEL-5
[55] = test system: COLO 205
[56] = test system: DU-145
[57] = test system: OVCAR-4
[58] = test system: SN12C

In the case of `Cn1c([C@H](C#N)c2ncccc2[N+](=O)[O-])nc2ccccc21`, the GI50 [1] is reported as 31.8 µM (inactive), the GI50 [2] is reported as > 100 µM (inactive) and the GI50 [3] is reported as 83.9 µM (inactive). For the same molecule, the GI50 [4] was > 100 µM (inactive), the GI50 [5] was > 100 µM (inactive) and the GI50 [6] was > 100 µM (inactive). For the same molecule, the GI50 [7] was 0.632 µM (active), the GI50 [8] was 56 µM (inactive) and the GI50 [9] was > 100 µM (inactive). The GI50 [10] was > 100 µM (inactive), the GI50 [11] was > 100 µM and the GI50 [12] was > 100 µM (inactive). The GI50 [13] was 24.5 µM (inactive), the GI50 [14] was 89.1 µM (inactive) and the GI50 [15] was > 100 µM (inactive). For the same molecule, the GI50 [16] was 29.9 µM (inactive), the GI50 [17] was > 100 µM (inactive) and the GI50 [18] was > 100 µM (inactive). For the same molecule, the GI50 [19] was > 100 µM (inactive), the GI50 [20] was > 100 µM (inactive) and the GI50 [21] was 21 µM (inactive). The GI50 [22] was > 100 µM (inactive), the GI50 [23] was > 100 µM (inactive) and the GI50 [24] was > 100 µM (inactive). For the same molecule, the GI50 [25] was > 100 µM (inactive), the GI50 [26] was 83.2 µM (inactive) and the GI50 [27] was > 100 µM (inactive). For the same molecule, the GI50 [28] was 59 µM (inactive), the GI50 [29] was 76.4 µM (inactive) and the GI50 [30] was 14.4 µM (inactive). The GI50 [31] was 78.2 µM (inactive), the GI50 [32] was > 100 µM (inactive) and the GI50 [33] was > 100 µM (inactive). The GI50 [34] was 49.3 µM (inactive), the GI50 [35] was 86.1 µM (inactive) and the GI50 [36] was > 100 µM (inactive). The GI50 [37] was 19.5 µM (inactive), the GI50 [38] was 36 µM (inactive) and the GI50 [39] was 28.4 µM (inactive). The GI50 [40] was 31.1 µM (inactive), the GI50 [41] was > 100 µM (inactive) and the GI50 [42] was 40.6 µM (inactive). The GI50 [43] was 32.8 µM (inactive), the GI50 [44] was 50 µM (inactive) and the GI50 [45] was 28.2 µM (inactive). The GI50 [46] was > 100 µM (inactive), the GI50 [47] was > 100 µM (inactive) and the GI50 [48] was > 100 µM (inactive). For the same molecule, the GI50 [49] was 34.8 µM (inactive), the GI50 [50] was > 100 µM (inactive) and the GI50 [51] was > 100 µM (inactive). For the same molecule, the GI50 [52] was > 100 µM (inactive).
`N#Cc1c(-c2ccccc2)cc(-c2ccccc2)n(C2OC(CO)C(O)C(O)C2O)c1=S` (stereo not drawn) was tested, and the GI50 [1] was 55.5 µM (inactive) and 38.5 µM (inactive), the GI50 [2] was 19.7 µM (inactive) and the GI50 [3] was 32.7 µM (inactive) and 46.1 µM (inactive). The GI50 [5] was 32.1 µM (inactive) and 25.6 µM (inactive), the GI50 [8] was > 100 µM (inactive) and the GI50 [10] was 37.4 µM (inactive) and 19.7 µM (inactive). For the same molecule, the GI50 [12] was 36.2 µM (inactive) and 38.7 µM (inactive), the GI50 [15] was 23.1 µM (inactive) and 34.4 µM (inactive) and the GI50 [16] was 21.1 µM (inactive) and 31.9 µM (inactive). The GI50 [53] was 45.5 µM (inactive) and 31 µM (inactive), the GI50 [18] was 53.2 µM (inactive) and 48.2 µM (inactive) and the GI50 [19] was 15 µM (inactive) and 26.8 µM (inactive). The GI50 [21] was 27.5 µM (inactive) and 43.4 µM (inactive), the GI50 [23] was 21 µM (inactive) and 25.4 µM (inactive) and the GI50 [24] was 45 µM (inactive) and 23.2 µM (inactive). For the same molecule, the GI50 [28] was 23.4 µM (inactive) and 29 µM (inactive), the GI50 [29] was 42.1 µM (inactive) and 28.6 µM (inactive) and the GI50 [31] was 72.3 µM (inactive). The GI50 [34] was 39.1 µM (inactive) and 32.7 µM (inactive), the GI50 [35] was 17.1 µM (inactive) and 29.6 µM (inactive) and the GI50 [36] was 29.2 µM (inactive) and 21.9 µM (inactive). For the same molecule, the GI50 [37] was 40.3 µM (inactive), the GI50 [38] was 34.2 µM (inactive) and 27.4 µM (inactive) and the GI50 [54] was 30.4 µM (inactive) and 15.7 µM (inactive). The GI50 [44] was 38 µM (inactive) and 33 µM (inactive), the GI50 [45] was 33.2 µM (inactive) and 51.2 µM (inactive) and the GI50 [46] was 30.8 µM (inactive) and 30.9 µM (inactive). For the same molecule, the GI50 [47] was 37.2 µM (inactive) and 23.6 µM (inactive), the GI50 [48] was 70.3 µM (inactive) and the GI50 [49] was 18.8 µM (inactive). For the same molecule, the GI50 [52] was 41.2 µM (inactive) and 34.3 µM (inactive).
`C/C=C/C/C=C/CCC(=O)C1OC1C(N)=O` (stereo not drawn) was tested, and the GI50 [1] was 13.1 µM (inactive), the GI50 [3] was 20.7 µM (inactive) and the GI50 [4] was 15.2 µM (inactive). For the same molecule, the GI50 [5] was 12.2 µM (inactive), the GI50 [6] was 16.3 µM (inactive) and the GI50 [7] was 11.4 µM (inactive). For the same molecule, the GI50 [55] was 18.9 µM (inactive), the GI50 [56] was 17.5 µM (inactive) and the GI50 [8] was 18.9 µM (inactive). For the same molecule, the GI50 [9] was 17.3 µM (inactive), the GI50 [10] was 15 µM (inactive) and the GI50 [11] was 12.6 µM. For the same molecule, the GI50 [13] was 2.52 µM (inactive), the GI50 [14] was 16 µM (inactive) and the GI50 [15] was 17.3 µM (inactive). For the same molecule, the GI50 [16] was 22.8 µM (inactive), the GI50 [53] was 16.4 µM (inactive) and the GI50 [17] was 15.9 µM (inactive). The GI50 [18] was 15.3 µM (inactive), the GI50 [19] was 13.2 µM (inactive) and the GI50 [20] was 15.8 µM (inactive). The GI50 [21] was 14.5 µM (inactive), the GI50 [22] was 16.5 µM (inactive) and the GI50 [23] was 14.1 µM (inactive). The GI50 [25] was 13.2 µM (inactive), the GI50 [26] was 17.8 µM (inactive) and the GI50 [28] was 14.9 µM (inactive). The GI50 [29] was 12.8 µM (inactive), the GI50 [30] was 12.4 µM (inactive) and the GI50 [31] was 20 µM (inactive). The GI50 [32] was 18.7 µM (inactive), the GI50 [57] was 11.6 µM (inactive) and the GI50 [33] was 18.8 µM (inactive). For the same molecule, the GI50 [34] was 13.3 µM (inactive), the GI50 [35] was 15.4 µM (inactive) and the GI50 [37] was 9.4 µM (inactive). For the same molecule, the GI50 [38] was 12.5 µM (inactive), the GI50 [39] was 15 µM (inactive) and the GI50 [40] was 15.2 µM (inactive). The GI50 [41] was 15.4 µM (inactive), the GI50 [42] was 18.6 µM (inactive) and the GI50 [54] was 15 µM (inactive). The GI50 [43] was 35.1 µM (inactive), the GI50 [58] was 19 µM (inactive) and the GI50 [44] was 18.2 µM (inactive). The GI50 [45] was 14.3 µM (inactive), the GI50 [46] was 10.6 µM (inactive) and the GI50 [47] was 19.8 µM (inactive). For the same molecule, the GI50 [48] was 13.2 µM (inactive), the GI50 [49] was 16.8 µM (inactive) and the GI50 [50] was 17.3 µM (inactive). For the same molecule, the GI50 [51] was 15.9 µM (inactive) and the GI50 [52] was 11.8 µM (inactive).
`COn1oc(=O)c2ccccc21` was tested, and the GI50 [1] was > 100 µM (inactive), the GI50 [2] was > 100 µM (inactive) and the GI50 [3] was > 100 µM (inactive). For the same molecule, the GI50 [4] was > 100 µM (inactive), the GI50 [5] was > 100 µM (inactive) and the GI50 [6] was > 100 µM (inactive). The GI50 [7] was > 100 µM (inactive), the GI50 [55] was > 100 µM (inactive) and the GI50 [56] was > 100 µM (inactive). The GI50 [8] was > 100 µM (inactive), the GI50 [9] was > 100 µM (inactive) and the GI50 [10] was > 100 µM (inactive). The GI50 [11] was > 100 µM, the GI50 [12] was > 100 µM (inactive) and the GI50 [13] was > 100 µM (inactive). For the same molecule, the GI50 [14] was > 100 µM (inactive), the GI50 [15] was > 100 µM (inactive) and the GI50 [16] was > 100 µM (inactive). The GI50 [53] was > 100 µM (inactive), the GI50 [17] was > 100 µM (inactive) and the GI50 [18] was > 100 µM (inactive). The GI50 [19] was > 100 µM (inactive), the GI50 [20] was > 100 µM (inactive) and the GI50 [21] was > 100 µM (inactive). For the same molecule, the GI50 [22] was > 100 µM (inactive), the GI50 [23] was > 100 µM (inactive) and the GI50 [24] was > 100 µM (inactive). The GI50 [25] was > 100 µM (inactive), the GI50 [26] was 91.2 µM (inactive) and the GI50 [27] was > 100 µM (inactive). The GI50 [28] was > 100 µM (inactive), the GI50 [29] was > 100 µM (inactive) and the GI50 [30] was 11.5 µM (inactive). The GI50 [31] was > 100 µM (inactive), the GI50 [32] was > 100 µM (inactive) and the GI50 [57] was > 100 µM (inactive). For the same molecule, the GI50 [33] was > 100 µM (inactive), the GI50 [34] was > 100 µM (inactive) and the GI50 [35] was > 100 µM (inactive). For the same molecule, the GI50 [36] was > 100 µM (inactive), the GI50 [37] was > 100 µM (inactive) and the GI50 [38] was > 100 µM (inactive). For the same molecule, the GI50 [39] was > 100 µM (inactive), the GI50 [40] was > 100 µM (inactive) and the GI50 [41] was > 100 µM (inactive). The GI50 [42] was > 100 µM (inactive), the GI50 [54] was > 100 µM (inactive) and the GI50 [43] was > 100 µM (inactive). For the same molecule, the GI50 [58] was > 100 µM (inactive), the GI50 [44] was > 100 µM (inactive) and the GI50 [45] was > 100 µM (inactive). The GI50 [47] was > 100 µM (inactive), the GI50 [48] was > 100 µM (inactive) and the GI50 [49] was > 100 µM (inactive). The GI50 [50] was > 100 µM (inactive), the GI50 [51] was > 100 µM (inactive) and the GI50 [52] was > 100 µM (inactive).
